Assays:
3D7 P. falciparum strain = assay: parasite proliferation assay in infected red blood cells (SYBR Green I); type: cell-based, Plasmodium falciparum; conditions: Plasmodium falciparum, 3D7, Erythrocyte, 3D7 strain; read-out: EC50 3D7 strain
How it was run: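 P. falciparum 3D7 grown in O+ human erythrocytes to 3–8% parasitemia and exposed to compounds. Proliferation read as the increase in parasite DNA. Detection used SYBR Green I in saponin/triton-X/EDTA lysis buffer, with overnight lysis at room temperature.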

W2 strain = assay: parasite proliferation assay in infected red blood cells (SYBR Green I), W2 strain; type: cell-based, Plasmodium falciparum; conditions: Plasmodium falciparum, Erythrocyte
Excerpt: Compounds of the invention can be assayed to measure their capacity to inhibit proliferation of parasitemia in infected red blood cells. The proliferation is quantified by the addition of SYBR Green I (INVITROGEN)® dye which has a high affinity for double stranded DNA.

| SMILES | EC50 (3D7 P. falciparum strain) [µM] | EC50 (W2 strain) [µM] |
| --- | --- | --- |
| Cc1ccc(Nc2c(-c3cc(F)ccc3F)nc3n2CCN(C(=O)CN)C3)cc1 [Compound 418] | 0.09 | 0.146 |
| CC1(C)c2nc(-c3ccc(F)cc3)c(Nc3ccc(Cl)c(F)c3)n2CCN1C(=O)CN [Compound 419] | 0.03 | 0.024 |
| CC1(C)NCCn2c1nc(-c1ccc(F)cc1)c2Nc1ccc(Cl)c(F)c1 [Compound 420] | 0.02 | 0.028 |
| CC1(C)NCCn2c1nc(-c1ccc(F)cc1)c2Nc1ccc(F)c(F)c1 [Compound 422] | 0.01 | 0.021 |
| CC1(C)NCCn2c1nc(-c1ccc(F)cc1)c2Nc1ccc(F)c(Cl)c1 [Compound 424] | 0.02 | 0.03 |
| CC1(C)c2nc(-c3ccc(F)cc3)c(Nc3ccc(C#N)cc3)n2CCN1C(=O)CN [Compound 425] | 0.01 | 0.012 |
| CC1(C)NCCn2c1nc(-c1ccc(F)cc1)c2Nc1ccc(C#N)cc1 [Compound 426] | 0.18 | 0.271 |
| COc1cc(Nc2c(-c3ccc(F)cc3)nc3n2CCN(C(=O)C(C)(C)N)C3)cc(F)c1F [Compound 427] | 0.21 | 0.436 |
| Cc1cc(Nc2c(-c3ccc(F)cc3)nc3n2CCN(C(=O)C(C)(C)N)C3)cc(C)c1F [Compound 428] | 0.17 | 0.242 |
| N[C@@H](CC1CCC1)C(=O)N1CCn2c(nc(-c3ccc(F)cc3)c2Nc2ccc(F)c(F)c2)C1 [Compound 429] | 0.02 | 0.036 |
| CC(C)[C@@H](O)C(=O)N1CCn2c(nc(-c3ccc(F)cc3)c2Nc2ccc(F)c(F)c2)C1 [Compound 430] | 0.01 | 0.019 |
| N[C@@H](Cc1cscn1)C(=O)N1CCn2c(nc(-c3ccc(F)cc3)c2Nc2ccc(F)c(F)c2)C1 [Compound 431] | 0.07 | 0.08 |
| Cc1ccc(C[C@H](N)C(=O)N2CCn3c(nc(-c4ccc(F)cc4)c3Nc3ccc(F)c(F)c3)C2)cc1 [Compound 432] | 0.06 | 0.067 |
| N[C@@H](Cc1ccc(F)c(F)c1)C(=O)N1CCn2c(nc(-c3ccc(F)cc3)c2Nc2ccc(F)c(F)c2)C1 [Compound 433] | 0.04 | 0.049 |
| CC(C)[C@H](N)C(=O)N1CCn2c(nc(-c3ccc(F)cc3)c2Nc2ccc(F)c(F)c2)C1 [Compound 434] | 0.02 | 0.019 |
| C[C@H](N)C(=O)N1CCn2c(nc(-c3ccc(F)cc3)c2Nc2ccc(F)c(F)c2)C1 [Compound 435] | 0.05 | 0.098 |
| N[C@H](C(=O)N1CCn2c(nc(-c3ccc(F)cc3)c2Nc2ccc(F)c(F)c2)C1)c1ccc(F)cc1 [Compound 436] | 0.03 | 0.052 |
| N[C@H](C(=O)N1CCn2c(nc(-c3ccc(F)cc3)c2Nc2ccc(F)c(F)c2)C1)C1CC1 [Compound 437] | 0.02 | 0.028 |
| N[C@@H](CC1CC1)C(=O)N1CCn2c(nc(-c3ccc(F)cc3)c2Nc2ccc(F)c(F)c2)C1 [Compound 438] | 0.02 | 0.023 |
| CC(C)C[C@H](N)C(=O)N1CCn2c(nc(-c3ccc(F)cc3)c2Nc2ccc(F)c(F)c2)C1 [Compound 439] | 0.03 | 0.04 |

| SMILES | EC50 (3D7 P. falciparum strain) [µM] | EC50 (W2 strain) [µM] |
| --- | --- | --- |
| CC(C)[C@H](O)C(=O)N1CCn2c(nc(-c3ccc(F)cc3)c2Nc2ccc(F)c(F)c2)C1 [Compound 440] | 0.02 | 0.028 |
| O=C([C@@H]1CCN1)N1CCn2c(nc(-c3ccc(F)cc3)c2Nc2ccc(F)c(F)c2)C1 [Compound 441] | 0.06 | 0.081 |
| CC[C@H](C)[C@H](N)C(=O)N1CCn2c(nc(-c3ccc(F)cc3)c2Nc2ccc(F)c(F)c2)C1 [Compound 442] | 0.02 | 0.033 |
| N[C@@H](Cc1ccc(F)cc1)C(=O)N1CCn2c(nc(-c3ccc(F)cc3)c2Nc2ccc(F)c(F)c2)C1 [Compound 443] | 0.05 | 0.055 |
| CC(C)N(c1ccc(Cl)c(F)c1)c1c(-c2ccc(F)cc2)nc2n1CCNC2 [Compound 444] | 7.22 | 5.96 |
| CC(C)N(c1cccc(F)c1)c1c(-c2ccc(F)cc2)nc2n1CCNC2 [Compound 445] | 2.6 | 3.27 |
| CCN(c1cccc(F)c1)c1c(-c2ccc(F)cc2)nc2n1CCNC2 [Compound 446] | 0.31 | 0.243 |
| C[C@H](N)C(=O)N1CCn2c(nc(-c3ccc(F)cc3)c2Nc2ccc(Cl)cc2)C1 [Compound 448] | 0.02 | 0.022 |
| CC(C)[C@H](N)C(=O)N1CCn2c(nc(-c3ccc(F)cc3)c2Nc2ccc(Cl)cc2)C1 [Compound 449] | 0.03 | 0.026 |
| N[C@H](C(=O)N1CCn2c(nc(-c3ccc(F)cc3)c2Nc2ccc(Cl)cc2)C1)C1CC1 [Compound 450] | 0.02 | 0.015 |
| N[C@@H](CC1CC1)C(=O)N1CCn2c(nc(-c3ccc(F)cc3)c2Nc2ccc(Cl)cc2)C1 [Compound 451] | 0.03 | 0.019 |
| N[C@@H](CC1CCC1)C(=O)N1CCn2c(nc(-c3ccc(F)cc3)c2Nc2ccc(Cl)cc2)C1 [Compound 452] | 0.02 | 0.019 |
| CC(C)C[C@H](N)C(=O)N1CCn2c(nc(-c3ccc(F)cc3)c2Nc2ccc(Cl)cc2)C1 [Compound 453] | 0.02 | 0.021 |
| CC[C@H](C)[C@H](N)C(=O)N1CCn2c(nc(-c3ccc(F)cc3)c2Nc2ccc(Cl)cc2)C1 [Compound 454] | 0.02 | 0.008 |
| CC(C)[C@H](O)C(=O)N1CCn2c(nc(-c3ccc(F)cc3)c2Nc2ccc(Cl)cc2)C1 [Compound 455] | 0.01 | 0.008 |
| CC(C)[C@@H](O)C(=O)N1CCn2c(nc(-c3ccc(F)cc3)c2Nc2ccc(Cl)cc2)C1 [Compound 456] | 0.02 | 0.015 |
| N[C@H](C(=O)N1CCn2c(nc(-c3ccc(F)cc3)c2Nc2ccc(Cl)cc2)C1)c1ccc(F)cc1 [Compound 457] | 0.02 | 0.011 |
| N[C@@H](Cc1ccc(F)cc1)C(=O)N1CCn2c(nc(-c3ccc(F)cc3)c2Nc2ccc(Cl)cc2)C1 [Compound 458] | 0.02 | 0.017 |
| Cc1ccc(C[C@H](N)C(=O)N2CCn3c(nc(-c4ccc(F)cc4)c3Nc3ccc(Cl)cc3)C2)cc1 [Compound 459] | 0.04 | 0.024 |
| N[C@@H](Cc1ccc(F)c(F)c1)C(=O)N1CCn2c(nc(-c3ccc(F)cc3)c2Nc2ccc(Cl)cc2)C1 [Compound 460] | 0.04 | 0.033 |

| SMILES | EC50 (3D7 P. falciparum strain) [µM] | EC50 (W2 strain) [µM] |
| --- | --- | --- |
| N[C@@H](Cc1cscn1)C(=O)N1CCn2c(nc(-c3ccc(F)cc3)c2Nc2ccc(Cl)cc2)C1 [Compound 461] | 0.03 | 0.022 |
| O=C([C@@H]1CCN1)N1CCn2c(nc(-c3ccc(F)cc3)c2Nc2ccc(Cl)cc2)C1 [Compound 462] | 0.05 | 0.037 |
| CC(C)(C)[C@H](N)C(=O)N1CCn2c(nc(-c3ccc(F)cc3)c2Nc2ccc(Cl)cc2)C1 [Compound 463] | 0.04 | 0.024 |
| CC(C)[C@H](N)C(=O)N1CCn2c(nc(-c3ccc(F)cc3)c2Nc2ccc(F)cc2)C1 [Compound 464] | 0.03 | 0.024 |
| N[C@H](C(=O)N1CCn2c(nc(-c3ccc(F)cc3)c2Nc2ccc(F)cc2)C1)C1CC1 [Compound 465] | 0.0019 | 0.002 |
| N[C@@H](CC1CCC1)C(=O)N1CCn2c(nc(-c3ccc(F)cc3)c2Nc2ccc(F)cc2)C1 [Compound 467] | 0.02 | 0.016 |
| CC(C)C[C@H](N)C(=O)N1CCn2c(nc(-c3ccc(F)cc3)c2Nc2ccc(F)cc2)C1 [Compound 468] | 0.03 | 0.02 |
| CC[C@H](C)[C@H](N)C(=O)N1CCn2c(nc(-c3ccc(F)cc3)c2Nc2ccc(F)cc2)C1 [Compound 469] | 0.02 | 0.016 |
| CC(C)[C@H](O)C(=O)N1CCn2c(nc(-c3ccc(F)cc3)c2Nc2ccc(F)cc2)C1 [Compound 470] | 0.01 | 0.012 |
| CC(C)[C@@H](O)C(=O)N1CCn2c(nc(-c3ccc(F)cc3)c2Nc2ccc(F)cc2)C1 [Compound 471] | 0.03 | 0.03 |
| N[C@H](C(=O)N1CCn2c(nc(-c3ccc(F)cc3)c2Nc2ccc(F)cc2)C1)c1ccc(F)cc1 [Compound 472] | 0.05 | 0.037 |
| N[C@@H](Cc1ccc(F)cc1)C(=O)N1CCn2c(nc(-c3ccc(F)cc3)c2Nc2ccc(F)cc2)C1 [Compound 473] | 0.03 | 0.021 |
| Cc1ccc(C[C@H](N)C(=O)N2CCn3c(nc(-c4ccc(F)cc4)c3Nc3ccc(F)cc3)C2)cc1 [Compound 474] | 0.13 | 0.088 |
| N[C@@H](Cc1ccc(F)c(F)c1)C(=O)N1CCn2c(nc(-c3ccc(F)cc3)c2Nc2ccc(F)cc2)C1 [Compound 475] | 0.04 | 0.03 |
| N[C@@H](Cc1cscn1)C(=O)N1CCn2c(nc(-c3ccc(F)cc3)c2Nc2ccc(F)cc2)C1 [Compound 476] | 0.04 | 0.027 |
| O=C([C@@H]1CCN1)N1CCn2c(nc(-c3ccc(F)cc3)c2Nc2ccc(F)cc2)C1 [Compound 477] | 0.07 | 0.055 |
| CC(C)(C)[C@H](N)C(=O)N1CCn2c(nc(-c3ccc(F)cc3)c2Nc2ccc(F)cc2)C1 [Compound 478] | 0.06 | 0.039 |
| Cc1ccc(Nc2c(-c3ccc(F)cc3)nc3n2CCN(C(=O)[C@@H](N)CC2CCC2)C3)cc1 [Compound 479] | 0.02 | 0.012 |
| Cc1ccc(Nc2c(-c3ccc(F)cc3)nc3n2CCN(C(=O)[C@@H](N)CC(C)C)C3)cc1 [Compound 480] | 0.03 | 0.022 |
| CC[C@H](C)[C@H](N)C(=O)N1CCn2c(nc(-c3ccc(F)cc3)c2Nc2ccc(C)cc2)C1 [Compound 481] | 0.02 | 0.014 |
